Key:
FTD/ALS model mice [1] = test: Immunohistochemical analysis of brain sections (Test Example 2); assay type: in vivo; details: nasal, single agent 0.04 mg/day, 1 month
Text: (§1) FVB/NJ-Tg(C9orf72)500Lpwr/J mice (FTD/ALS model mice) were purchased from The Jackson Laboratory (Bar Harbor, ME, USA). The mouse strain was generated as a model for the C9orf72-associated FTD/ALS expressing the human C9orf72 gene with about 500 hexanucleotide (GGGGCC) repeats using a bacterial artificial chromosome (BAC) vector. Transgenic (Tg) mice were crossed with wild-type FVB/NJc1 mice, and the transgene was maintained as a heterozygote at our animal facility.
(§2) Age-matched non-Tg rat mates received only CMC.
(§3) After the behavioral test, each group was divided into two groups: one for immunohistochemical analysis and the other for future biochemical analysis. Immunohistochemical staining was performed as described above. For staining of double-stranded RNA-dependent protein kinase (PKR), phosphorylated TDP-43, synaptophysin, sections were boiled in 10 mM citrate buffer solution (pH6) for 30 min to expose the antigens. The sections were blocked overnight with 10% calf serum, and then the resultant sections were stained with antibodies for DNA/RNA G-quadruplex (BG4; Absolute antibody, Cleveland, UK), phospho-PKR (Thr446) (MilliporeSigma, Burlington, MA, USA), poly-GA, poly-GP (Cosmo Bio Co., Ltd., Tokyo, Japan), pSer409/410-TDP-43 (Cosmo Bio Co., Ltd.), and synaptophysin (SVP-38; Sigma-Aldrich, St. Luis, MO, USA). Only synaptophysin was stained with a biotin-labeled secondary antibody (Vector Laboratories, Burlingame, CA, USA), a horseradish peroxidase (HRP) -labeled avidin-biotin complex (Vector Laboratories), HRP substrate, diaminobenzidine (DAB), or an FITC-labeled secondary antibody (The Jackson Laboratory). […] Neuropathologies were evaluated by measuring the staining intensity or area or by counting positive puncta or cells in a constant area in each photograph using NIH ImageJ software.

BDNF = test: Expression of BDNF in the mouse brains; assay type: in vivo; details: stated in the discussion only; no method, dose or data given
PKR = test: Immunohistochemical analysis of phospho-PKR (Thr446) (Test Example 2); assay type: in vivo, mice; details: prefrontal cortex; nasal, single agent 0.04 mg/day, 1 month
Method: as §2, §3

FTD/ALS model mice [2] = test: Morris water maze test (Test Example 2); assay type: in vivo; details: 7- to 8-month-old mice; nasal, single agent 0.04 mg/day, 1 month
Text: as §1, with “([…])” for “(GGGGCC)”, “facility. […] Louis, MO) and trans-resveratrol (Sigma-Aldrich) were dissolved in 0.5% low-viscosity CMC (Sigma-Aldrich) at 4 mg/mL. […] Age-matched non-Tg […] mates received only CMC. After administration for one month, the cognitive function of the mice was assessed in the Morris water maze test as described above.” for “facility.”

SMILES: Oc1ccc(/C=C/c2cc(O)cc(O)c2)cc1 [resveratrol, 3,5,4'-trihydroxy-trans-stilbene]
- relative strength of the reduction of prefrontal cortex pathologies (G-quadruplex, phosphorylated PKR, poly-GA, poly-GP, phosphorylated TDP-43) (FTD/ALS model mice [1]; comparison among treatment groups): strongest effect
- synaptic loss (synaptophysin levels) in the DG (FTD/ALS model mice [1]; dentate gyrus): significantly restored synaptic loss
- synaptic loss (synaptophysin levels) in the CA2-3 region (FTD/ALS model mice [1]; hippocampus): significantly restored synaptic loss
- levels of G-quadruplex (FTD/ALS model mice [1]; prefrontal cortex): significantly reduced
- levels of phosphorylated TDP-43 (FTD/ALS model mice [1]; prefrontal cortex): significantly reduced
- levels of poly-GA (FTD/ALS model mice [1]; prefrontal cortex): significantly reduced
- levels of poly-GP (FTD/ALS model mice [1]; prefrontal cortex): significantly reduced
- expression of BDNF in the mouse brains (BDNF): elicited
- levels of phosphorylated PKR (PKR): significantly reduced
- cognitive function of FTD/ALS model mice (FTD/ALS model mice [2]): significantly improved
